# Experimental data reported in ChEMBL document CHEMBL1148857, “In vitro and in vivo profile of 5-[(4'-trifluoromethyl-biphenyl-2-carbonyl)-amino]-1H-indole-2-carboxylic acid benzylmethyl carbamoylamide (dirlotapide), a novel potent MTP inhibitor for obesity” (Bioorg Med Chem Lett, 2007).
# Activity calls are given as the source filed them. The rule behind the calls is not given here.
# Experiments:
# [1] = Volume of distribution at steady state in rat at 1 mg/kg, iv; type: ADME, organism-based; parameters: dose 1 mg/kg, route intravenous; conditions: in vivo, read-out: Vdss
# [2] = Half life in portal cannulated Beagle dog at 1 mg/kg, po; type: ADME, organism-based, Canis lupus familiaris; parameters: dose 1 mg/kg, route oral; conditions: in vivo
# [3] = target: Adenosine receptor A2a (Homo sapiens) (UniProt P29274); test: Inhibition of adenosine A2a receptor at 1 uM
# [4] = Intrinsic clearance in rat microsomes; type: ADME, Microsome
# [5] = Plasma clearance in rat at 1 mg/kg, iv; type: ADME, organism-based; parameters: dose 1 mg/kg, route intravenous
# [6] = target: Delta-type opioid receptor (Homo sapiens) (UniProt P41143); test: Inhibition of delta opioid receptor at 1 uM
# [7] = Volume of distribution at steady state in rat at 5 mg/kg, iv; type: ADME, organism-based; parameters: dose 5 mg/kg, route intravenous; conditions: in vivo, read-out: Vdss
# [8] = Half life in Beagle dog at 1 mg/kg, iv; type: ADME, organism-based, Canis lupus familiaris; parameters: dose 1 mg/kg, route intravenous; conditions: in vivo
# [9] = target: Histamine H2 receptor (Homo sapiens) (UniProt P25021); test: Inhibition of histamine H2 receptor at 1 uM
# Histamine H2 receptor (Homo sapiens), sequence (P25021 whole entry): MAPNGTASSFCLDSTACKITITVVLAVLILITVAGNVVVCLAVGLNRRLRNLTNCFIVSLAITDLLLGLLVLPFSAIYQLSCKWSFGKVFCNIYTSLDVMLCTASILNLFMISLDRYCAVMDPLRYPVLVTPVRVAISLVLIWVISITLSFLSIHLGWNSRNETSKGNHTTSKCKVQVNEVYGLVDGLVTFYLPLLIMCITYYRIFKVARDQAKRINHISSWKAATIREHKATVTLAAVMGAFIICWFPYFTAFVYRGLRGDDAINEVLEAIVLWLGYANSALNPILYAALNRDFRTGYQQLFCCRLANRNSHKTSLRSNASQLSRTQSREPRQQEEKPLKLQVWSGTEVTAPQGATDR
# CYP2C9 = test: Metabolic stability in human liver microsome at 0.5 uM in presence of 5 uM CYP2C9 inhibitor sulfaphenazole; type: ADME; conditions: liver microsomes, with 5 uM sulfaphenazole (CYP2C9 inhibitor)
# [10] = AUC (0 to infinity) in male rat at 30 mg/kg, po; type: ADME, organism-based; parameters: time infinity, dose 30 mg/kg, route oral; conditions: plasma
# [11] = target: Serotonin 3 (5-HT3) receptor (Homo sapiens) (UniProt P46098+A5X5Y0+O95264+Q70Z44+Q8WXA8); test: Inhibition of 5HT3 receptor at 1 uM; type: protein-complex assay
# [12] = target: Muscarinic acetylcholine receptor M1 (Homo sapiens) (UniProt P11229); test: Inhibition of muscarinic M1 receptor at 1 uM
# Muscarinic acetylcholine receptor M1 (Homo sapiens), sequence (P11229 whole entry): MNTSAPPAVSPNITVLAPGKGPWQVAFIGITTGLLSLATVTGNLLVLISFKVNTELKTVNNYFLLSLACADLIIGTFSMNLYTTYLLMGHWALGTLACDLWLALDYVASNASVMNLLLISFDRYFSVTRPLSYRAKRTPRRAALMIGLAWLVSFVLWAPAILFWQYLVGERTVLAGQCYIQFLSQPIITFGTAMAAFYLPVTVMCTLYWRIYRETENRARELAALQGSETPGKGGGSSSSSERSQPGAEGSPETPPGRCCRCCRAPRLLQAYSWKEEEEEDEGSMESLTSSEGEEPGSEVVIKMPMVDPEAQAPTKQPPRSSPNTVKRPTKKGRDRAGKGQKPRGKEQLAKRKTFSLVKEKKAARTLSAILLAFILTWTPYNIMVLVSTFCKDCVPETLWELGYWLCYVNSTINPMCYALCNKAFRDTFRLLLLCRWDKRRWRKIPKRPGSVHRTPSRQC
# [13] = target: D(2) dopamine receptor (Homo sapiens) (UniProt P14416); test: Inhibition of dopamine D2 receptor at 1 uM
# [14] = target: Platelet-activating factor receptor (Homo sapiens) (UniProt P25105); test: Inhibition of platelet activating factor receptor at 1 uM
# Platelet-activating factor receptor (Homo sapiens), sequence (P25105 whole entry): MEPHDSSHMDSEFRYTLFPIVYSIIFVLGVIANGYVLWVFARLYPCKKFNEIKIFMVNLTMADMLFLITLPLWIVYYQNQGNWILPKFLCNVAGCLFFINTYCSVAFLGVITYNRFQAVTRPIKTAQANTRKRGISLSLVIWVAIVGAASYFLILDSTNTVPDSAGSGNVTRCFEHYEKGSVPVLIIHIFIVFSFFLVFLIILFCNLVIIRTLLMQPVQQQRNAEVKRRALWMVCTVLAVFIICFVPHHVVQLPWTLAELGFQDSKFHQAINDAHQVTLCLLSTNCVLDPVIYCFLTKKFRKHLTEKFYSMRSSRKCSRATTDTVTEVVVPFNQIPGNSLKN
# [15] = Permeability from basolateral to apical side of the Caco-2 cell membrane at 10 uM in presence of calcium; type: ADME, cell-based; conditions: human
# [16] = Ratio of drug level in blood to plasma in human; type: ADME, cell-free; conditions: blood and plasma, read-out: BPR
# [17] = Ratio of drug level in blood to plasma in rat; type: ADME, cell-free; conditions: blood and plasma, read-out: BPR
# [18] = AUC (0 to infinity) in rat at 0.3 mg/kg, iv; type: ADME, organism-based; parameters: time infinity, dose 0.3 mg/kg, route intravenous; conditions: plasma
# [19] = Cmax in Beagle dog at 0.5 mg/kg, po; type: ADME, organism-based, Canis lupus familiaris; parameters: dose 0.5 mg/kg, route oral; conditions: in vivo
# [20] = target: Muscarinic acetylcholine receptor M2 (Homo sapiens) (UniProt P08172); test: Inhibition of muscarinic M2 receptor at 1 uM
# Muscarinic acetylcholine receptor M2 (Homo sapiens), sequence (P08172 whole entry): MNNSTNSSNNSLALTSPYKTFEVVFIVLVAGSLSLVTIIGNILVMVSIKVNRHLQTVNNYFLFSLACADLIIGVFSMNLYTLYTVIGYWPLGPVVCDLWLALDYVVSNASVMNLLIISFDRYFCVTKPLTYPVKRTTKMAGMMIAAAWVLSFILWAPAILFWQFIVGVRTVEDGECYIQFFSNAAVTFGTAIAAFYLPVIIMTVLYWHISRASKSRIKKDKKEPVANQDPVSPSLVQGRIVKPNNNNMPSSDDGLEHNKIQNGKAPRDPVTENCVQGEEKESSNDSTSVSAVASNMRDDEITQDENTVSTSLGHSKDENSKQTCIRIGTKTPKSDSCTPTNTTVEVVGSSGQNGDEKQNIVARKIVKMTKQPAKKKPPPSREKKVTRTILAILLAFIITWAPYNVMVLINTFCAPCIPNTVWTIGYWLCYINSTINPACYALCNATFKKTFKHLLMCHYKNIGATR
# [21] = AUC (0 to infinity) in rat at 1 mg/kg, iv; type: ADME, organism-based; parameters: time infinity, dose 1 mg/kg, route intravenous; conditions: plasma
# [22] = Bioavailability in portal cannulated Beagle dog at 1 mg/kg, po; type: ADME, organism-based, Canis lupus familiaris; conditions: in vivo
# Cytochrome P450 3A4 = Cytochrome P450 3A4 (Homo sapiens, UniProt P08684); test: Inhibition of CYP3A4; type: ADME
# [23] = Inhibition of MTP assessed as inhibition of apoB secretion from canine hepatocytes; type: cell-based; conditions: Canis lupus familiaris, Hepatocyte
# [24] = AUC (0 to infinity) in Beagle dog at 0.5 mg/kg, iv; type: ADME, organism-based, Canis lupus familiaris; parameters: time infinity, dose 0.5 mg/kg, route intravenous; conditions: plasma
# Homo sapiens [25] = species on record: Homo sapiens; test: Inhibition of AMPA receptor at 1 uM
# Cytochrome P450 2D6 = Cytochrome P450 2D6 (Homo sapiens, UniProt P10635); test: Inhibition of CYP2D6; type: ADME
# Cytochrome P450 2D6, sequence (P10635 whole entry): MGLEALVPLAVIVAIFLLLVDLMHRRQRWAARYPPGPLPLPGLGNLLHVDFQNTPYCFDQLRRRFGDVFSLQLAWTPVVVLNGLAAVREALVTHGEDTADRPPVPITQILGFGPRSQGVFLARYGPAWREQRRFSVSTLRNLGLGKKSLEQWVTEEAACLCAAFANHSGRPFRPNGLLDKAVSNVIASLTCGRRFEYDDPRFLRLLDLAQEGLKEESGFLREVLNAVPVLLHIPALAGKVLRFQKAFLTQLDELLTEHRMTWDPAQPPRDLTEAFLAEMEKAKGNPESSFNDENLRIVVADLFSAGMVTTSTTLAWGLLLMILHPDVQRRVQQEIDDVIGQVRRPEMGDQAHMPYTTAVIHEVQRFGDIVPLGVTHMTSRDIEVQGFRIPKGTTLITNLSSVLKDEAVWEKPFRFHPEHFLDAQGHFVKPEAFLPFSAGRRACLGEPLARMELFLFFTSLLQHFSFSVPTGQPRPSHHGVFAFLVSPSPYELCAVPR
# [26] = Half life in rat at 0.3 mg/kg, iv; type: ADME, organism-based; parameters: dose 0.3 mg/kg, route intravenous; conditions: in vivo
# Cytochrome P450 2C9 = Cytochrome P450 2C9 (Homo sapiens, UniProt P11712); test: Inhibition of CYP2C9; type: ADME
# Cytochrome P450 2C9, sequence (P11712 whole entry): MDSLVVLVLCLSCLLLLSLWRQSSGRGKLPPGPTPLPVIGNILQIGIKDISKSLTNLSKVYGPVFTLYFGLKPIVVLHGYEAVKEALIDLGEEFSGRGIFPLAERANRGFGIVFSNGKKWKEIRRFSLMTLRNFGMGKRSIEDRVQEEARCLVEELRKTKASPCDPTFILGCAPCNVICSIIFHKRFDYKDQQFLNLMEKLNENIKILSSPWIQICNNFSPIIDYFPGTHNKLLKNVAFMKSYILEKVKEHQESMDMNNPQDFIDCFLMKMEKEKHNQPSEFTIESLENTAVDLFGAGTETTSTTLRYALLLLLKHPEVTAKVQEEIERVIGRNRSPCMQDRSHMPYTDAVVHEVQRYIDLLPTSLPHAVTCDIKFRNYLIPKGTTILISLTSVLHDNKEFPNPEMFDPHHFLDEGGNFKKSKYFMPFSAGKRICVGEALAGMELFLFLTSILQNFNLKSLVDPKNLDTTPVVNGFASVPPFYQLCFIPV
# [27] = Tmax in rat at 3 mg/kg, po; type: ADME, organism-based; parameters: dose 3 mg/kg, route oral; conditions: in vivo
# [28] = target: Kappa-type opioid receptor (Homo sapiens) (UniProt P41145); test: Inhibition of kappa opioid receptor at 1 uM
# [29] = Plasma clearance in Beagle dog at 1 mg/kg, iv; type: ADME, organism-based, Canis lupus familiaris; parameters: dose 1 mg/kg, route intravenous
# [30] = AUC (0 to t) in rat at 5 mg/kg, iv; type: ADME, organism-based; parameters: dose 5 mg/kg, route intravenous; conditions: plasma
# [31] = target: 5-hydroxytryptamine receptor 1A (Homo sapiens) (UniProt P08908); test: Inhibition of 5HT1A receptor at 1 uM
# 5-hydroxytryptamine receptor 1A (Homo sapiens), sequence (P08908 whole entry): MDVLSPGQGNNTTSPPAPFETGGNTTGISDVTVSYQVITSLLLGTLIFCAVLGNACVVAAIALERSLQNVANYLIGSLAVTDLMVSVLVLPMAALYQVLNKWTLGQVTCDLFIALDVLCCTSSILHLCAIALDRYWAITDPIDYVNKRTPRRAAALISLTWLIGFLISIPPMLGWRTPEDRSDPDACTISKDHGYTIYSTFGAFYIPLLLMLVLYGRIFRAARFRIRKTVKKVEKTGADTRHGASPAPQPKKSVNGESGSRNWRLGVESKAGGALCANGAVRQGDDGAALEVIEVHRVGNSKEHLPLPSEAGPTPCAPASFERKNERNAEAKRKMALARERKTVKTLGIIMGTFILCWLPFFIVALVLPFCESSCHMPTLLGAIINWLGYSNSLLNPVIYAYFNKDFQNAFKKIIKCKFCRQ
# [32] = target: Melanocortin receptor 4 (Homo sapiens) (UniProt P32245); test: Inhibition of melanocortin MC4 receptor at 1 uM
# Melanocortin receptor 4 (Homo sapiens), sequence (P32245 whole entry): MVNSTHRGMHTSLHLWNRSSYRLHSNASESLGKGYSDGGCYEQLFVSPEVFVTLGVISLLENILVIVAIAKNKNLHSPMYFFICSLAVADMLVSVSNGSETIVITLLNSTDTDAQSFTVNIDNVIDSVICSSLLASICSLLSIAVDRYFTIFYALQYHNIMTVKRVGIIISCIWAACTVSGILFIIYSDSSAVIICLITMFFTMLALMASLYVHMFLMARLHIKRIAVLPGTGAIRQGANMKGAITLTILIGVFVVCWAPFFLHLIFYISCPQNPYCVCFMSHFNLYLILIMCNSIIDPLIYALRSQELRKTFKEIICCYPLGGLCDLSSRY
# [33] = target: Microsomal triglyceride transfer protein large subunit (Homo sapiens, UniProt P55157); test: Inhibition of MTP assessed as inhibition of apoB secretion from human HepG2 cells; type: cell-based
# Microsomal triglyceride transfer protein large subunit, sequence (P55157 whole entry): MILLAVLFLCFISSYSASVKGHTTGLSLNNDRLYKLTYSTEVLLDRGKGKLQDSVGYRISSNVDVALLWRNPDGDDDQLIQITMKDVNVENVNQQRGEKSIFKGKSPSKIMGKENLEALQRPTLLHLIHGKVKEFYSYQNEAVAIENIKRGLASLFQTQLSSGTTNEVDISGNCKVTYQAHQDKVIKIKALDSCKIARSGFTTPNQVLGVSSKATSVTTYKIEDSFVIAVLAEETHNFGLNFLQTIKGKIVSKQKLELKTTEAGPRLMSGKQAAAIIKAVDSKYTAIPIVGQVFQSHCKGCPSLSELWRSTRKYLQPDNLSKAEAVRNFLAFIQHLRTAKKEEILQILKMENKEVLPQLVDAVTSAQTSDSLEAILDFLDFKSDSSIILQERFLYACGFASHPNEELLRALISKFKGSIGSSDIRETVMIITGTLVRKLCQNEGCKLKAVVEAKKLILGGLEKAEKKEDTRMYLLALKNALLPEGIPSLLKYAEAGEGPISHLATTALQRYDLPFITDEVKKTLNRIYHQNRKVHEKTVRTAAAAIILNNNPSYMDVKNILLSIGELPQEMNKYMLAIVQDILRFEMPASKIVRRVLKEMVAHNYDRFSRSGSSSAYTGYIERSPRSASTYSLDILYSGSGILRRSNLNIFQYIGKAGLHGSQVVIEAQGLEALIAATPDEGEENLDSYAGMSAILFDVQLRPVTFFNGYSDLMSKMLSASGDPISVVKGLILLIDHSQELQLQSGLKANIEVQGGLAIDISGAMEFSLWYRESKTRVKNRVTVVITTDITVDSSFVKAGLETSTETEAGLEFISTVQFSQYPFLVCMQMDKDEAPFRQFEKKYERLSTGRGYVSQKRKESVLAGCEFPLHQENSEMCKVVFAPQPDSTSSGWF
# [34] = target: Adenosine receptor A1 (Homo sapiens) (UniProt P30542); test: Inhibition of adenosine A1 receptor at 1 uM
# [35] = Cmax in rat at 30 mg/kg, po after 2.8 hrs; type: ADME, organism-based; parameters: dose 30 mg/kg, route oral; conditions: in vivo
# [36] = AUC (0 to infinity) in Beagle dog at 0.5 mg/kg, po; type: ADME, organism-based, Canis lupus familiaris; parameters: time infinity, dose 0.5 mg/kg, route oral; conditions: plasma
# [37] = target: 5-hydroxytryptamine receptor 7 (Homo sapiens) (UniProt P34969); test: Inhibition of 5HT7 receptor at 1 uM
# 5-hydroxytryptamine receptor 7 (Homo sapiens), sequence (P34969 whole entry): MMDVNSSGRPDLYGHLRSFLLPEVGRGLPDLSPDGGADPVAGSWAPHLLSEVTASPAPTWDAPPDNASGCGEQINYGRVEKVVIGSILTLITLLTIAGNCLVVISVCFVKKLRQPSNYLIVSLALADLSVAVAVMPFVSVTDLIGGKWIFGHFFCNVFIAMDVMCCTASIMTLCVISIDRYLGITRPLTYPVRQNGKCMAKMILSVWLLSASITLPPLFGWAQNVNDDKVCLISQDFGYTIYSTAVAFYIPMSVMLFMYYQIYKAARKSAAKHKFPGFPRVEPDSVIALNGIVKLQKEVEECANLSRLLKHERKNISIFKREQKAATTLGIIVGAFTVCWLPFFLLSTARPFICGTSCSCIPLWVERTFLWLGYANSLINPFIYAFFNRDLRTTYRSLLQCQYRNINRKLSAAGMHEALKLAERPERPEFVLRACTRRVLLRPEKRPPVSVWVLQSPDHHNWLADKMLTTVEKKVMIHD
# [38] = Cmax in Beagle dog at 5 mg/kg, po; type: ADME, organism-based, Canis lupus familiaris; parameters: dose 5 mg/kg, route oral; conditions: in vivo
# [39] = Half life in Beagle dog at 5 mg/kg, po; type: ADME, organism-based, Canis lupus familiaris; parameters: dose 5 mg/kg, route oral; conditions: in vivo
# [40] = AUC (0 to infinity) in rat at 3 mg/kg, po; type: ADME, organism-based; parameters: time infinity, dose 3 mg/kg, route oral; conditions: plasma
# Homo sapiens [41] = species on record: Homo sapiens; test: Inhibition of kainate receptor at 1 uM
# Homo sapiens [42] = species on record: Homo sapiens; test: Inhibition of neuronal nicotinic receptor at 1 uM
# [43] = AUC (0 to t) in rat at 0.3 mg/kg, iv; type: ADME, organism-based; parameters: dose 0.3 mg/kg, route intravenous; conditions: plasma
# [44] = target: Muscarinic acetylcholine receptor M3 (Homo sapiens) (UniProt P20309); test: Inhibition of muscarinic M3 receptor at 1 uM
# Homo sapiens [45] = species on record: Homo sapiens; test: Inhibition of tachykinin receptor at 1 uM
# [46] = AUC (0 to infinity) in portal cannulated Beagle dog at 1 mg/kg, po; type: ADME, organism-based, Canis lupus familiaris; parameters: time infinity, dose 1 mg/kg, route oral; conditions: plasma
# Homo sapiens [47] = species on record: Homo sapiens; test: Inhibition of NMDA receptor at 1 uM
# [48] = Cmax in portal cannulated Beagle dog at 1 mg/kg, po; type: ADME, organism-based, Canis lupus familiaris; parameters: dose 1 mg/kg, route oral; conditions: in vivo
# [49] = Half life in portal cannulated Beagle dog at 1 mg/kg, iv; type: ADME, organism-based, Canis lupus familiaris; parameters: dose 1 mg/kg, route intravenous; conditions: in vivo
# [50] = Volume of distribution at steady state in Beagle dog at 0.5 mg/kg, iv; type: ADME, organism-based, Canis lupus familiaris; parameters: dose 0.5 mg/kg, route intravenous; conditions: in vivo, read-out: Vdss
# Canis familiaris = test: Effect on body weight in obese Beagle dog assessed as weight loss at 0.39 mg/kg, po after 3 months relative to control; type: functional, Canis lupus familiaris
# [51] = target: Adrenergic receptor alpha-2 (Homo sapiens) (UniProt P08913+P18825+P18089); test: Inhibition of adrenergic a2 receptor at 1 uM; type: protein assay
# [52] = target: Histamine H3 receptor (Homo sapiens) (UniProt Q9Y5N1); test: Inhibition of histamine H3 receptor at 1 uM
# [53] = Half life in rat at 1 mg/kg, iv; type: ADME, organism-based; parameters: dose 1 mg/kg, route intravenous; conditions: in vivo
# [54] = target: Adrenergic receptor alpha-1 (Homo sapiens) (UniProt P35348+P25100+P35368); test: Inhibition of adrenergic a1 receptor at 1 uM; type: protein assay
# [55] = Plasma clearance in monkey at 0.5 mg/kg, iv; type: ADME, organism-based, Macaca mulatta; parameters: dose 0.5 mg/kg, route intravenous; conditions: rhesus monkey
smiles,measurement,setting,value
CN(Cc1ccccc1)C(=O)[C@@H](NC(=O)c1cc2cc(NC(=O)c3ccccc3-c3ccc(C(F)(F)F)cc3)ccc2n1C)c1ccccc1 [DIRLOTAPIDE],Vd,[1],8 L/kg
same,half-life,[2],408 min
same,Activity,[3],inactive
same,CLint scaled,[4],645 mL/min/kg
same,clearance,[5],37 mL/min/kg
same,Activity,[6],inactive
same,Vd,[7],3.3 L/kg
same,half-life,[8],840 min
same,Activity,[9],inactive
same,half-life at 0.5 µM,CYP2C9,47 min
same,AUC(0-inf),[10],379 ng·h/mL
same,Activity,[11],inactive
same,Activity,[12],inactive
same,Activity,[13],inactive
same,Activity,[14],inactive
same,Papp B→A at 10 µM,[15],0.3 ×10⁻⁶ cm/s
same,blood plasma ratio,[16],0.61
same,blood plasma ratio,[17],0.64
same,AUC(0-inf),[18],55 ng·h/mL
same,Cmax,[19],31.1 ng/mL
same,Activity,[20],inactive
same,AUC(0-inf),[21],530 ng·h/mL
same,bioavailability,[22],10.6%
same,IC50,Cytochrome P450 3A4,> 30 µM
same,IC50,[23],1.5 nM
same,AUC(0-inf),[24],1550 ng·h/mL
same,Activity,Homo sapiens [25],inactive
same,IC50,Cytochrome P450 2D6,> 30 µM
same,half-life,[26],120 min
same,IC50,Cytochrome P450 2C9,> 30 µM
same,Tmax,[27],2.1 h
same,Activity,[28],inactive
same,clearance,[29],4.7 mL/min/kg
same,AUC(0-t),[30],5610 ng·h/mL
same,Activity,[31],inactive
same,Activity,[32],inactive
same,IC50,[33],2.9 nM
same,Activity,[34],inactive
same,Cmax,[35],21 ng/mL
same,AUC(0-inf),[36],663 ng·h/mL
same,Activity,[37],inactive
same,Cmax,[38],250 ng/mL
same,half-life,[39],354 min
same,AUC(0-inf),[40],40.7 ng·h/mL
same,Activity,Homo sapiens [41],inactive
same,Activity,Homo sapiens [42],inactive
same,AUC(0-t),[43],51 ng·h/mL
same,Activity,[44],inactive
same,Activity,Homo sapiens [45],inactive
same,AUC(0-inf),[46],289 ng·h/mL
same,Activity,Homo sapiens [47],inactive
same,Cmax,[48],26.8 ng/mL
same,half-life,[49],468 min
same,Vd,[50],1 L/kg
same,Activity,Canis familiaris,18.8%
same,Activity,[51],inactive
same,Activity,[52],inactive
same,half-life,[53],348 min
same,Activity,[54],inactive
same,clearance,[55],12 mL/min/kg
